Laboratory results from US9999704B2, “Amphiphilic degradable polymers for immobilization and sustained delivery of biomolecules” (University of Massachusetts, priority 2014, dated 2018).

System: Human umbilical vein endothelial cells (HUVECs)
Test: HUVEC-Matrigel tube formation assay
Assay type: cell-based
Details: free S1P solution, 17 h
Description: The electrospun meshes were punched into circles of 6.3 mm in diameter, weighed and sterilized with UV irradiation (254 nm, 1 h for each side). Fresh S1P solutions in PBS were carefully loaded onto each mesh (for S1P release study: 5 μL of 0.76-μg/μL solution to achieve 3.8-μg S1P loading per mesh; for tube formation assay: 2 or 10 μL of 0.19-μg/μL solution to achieve 0.38-μg or 1.90-μg S1P loading per mesh). The S1P-loaded meshes were incubated at 37° C. for 1 h and 4° C. for another 4 h before they were air-dried in laminar flow hood overnight.
Human umbilical vein endothelial cells (HUVECs, ATCC, passage 6), were cultured on gelatin-coated plates in M199 medium with 20% fetal bovine serum (FBS), 3 ng/mL bFGF, 5 units/mL heparin and 100 U/100 μg/mL Pen/Strep at 37° C. under 5% CO2. The 96-well culture plate was coated with 50 μL/well growth factor reduced Matrigel and incubated at 37° C. for 0.5 h to allow Matrigel to solidify. Then HUVECs suspended in 100 μL of M199 medium with 0.1% FBS and 100 U/100 μg/mL Pen/Strep were seeded on the Matrigel at 2×10^4 cells/well. After 30 min of cell attachment, PBS solutions of S1P or S1P-loaded meshes were carefully added to each well, followed by continued incubation at 37° C. for 17 h. After removing the meshes and culture media, the HUVECs were fixed with 10% formalin saline solution and imaged with an Axiovert 40 CFL microscope equipped with a QImaging camera at 25× and 100× magnifications. The total tube length in each well (n=3-4) was quantified by ImageJ (NIH).

Q: What does the source list for CCCCCCCCCCCCC/C=C/[C@@H](O)[C@@H](N)COP(=O)(O)O [S1P, Sphingosine-1-phosphate]?
A: total tube length (1-μM, no polymer carrier): increased; total tube length (10-μM, no polymer carrier): proangiogenic effect was compromised; total tube length (50-μM, vs. no-S1P control): significantly inhibited tube formation
